Assay results published in patent US8138177B2 (dated 2012).
Where a name gives a salt, the structure may show the parent alone.

Row | Compound | melting point [°C]
1 | Cc1cccc2c1n(CCS(C)(=O)=O)c(=O)n2C(=O)N[C@H](C(=O)N(C)C)C(C)(C)C | 190.7
2 | CC[C@H](C)[C@H](NC(=O)n1c(=O)n(CCN2CCCCC2)c2ccccc21)C(N)=O (as salt: hydrochloride) | 217.1
